# Laboratory results as given in patent US20240342201A1, “ASYMMETRIC GPR84 ANTAGONIST AND USE THEREOF” (priority 2021, published 2024).
# Read-outs that look alike come from different tables or passages of the source.
# Legend:
# [1] = test system: inflammatory bowel disease; conditions: trial terminated; cited from earlier work
# [2] = Tissue distribution and oral exposure in ICR mice (LC-MS); type: in vivo; conditions: oral 5 mg/kg; for AUC(0-t): mouse
# Protocol: The tissue distribution experiment of compounds XYF573c and LSX472a of the present invention in ICR mice was carried out, and their distribution in plasma and organs and oral exposure (AUC0-8h) were compared.
# ICR mice were purchased from Shanghai Experimental Animal Research Center.
# The concentrations of the compounds in plasma and various organs of ICR mice were detected by LC-MS.
# During the experiment, the mice were fasted for more than 12 hours, had free access to water, and provided with food 2 hours after administration.
# Both compounds XYF573c and LSX472a were administered orally, the dose was 5 mg/kg, and the solvent was DMSO/0.5% HPMC (5/95, v/v), N=3.
# At 0.5 h, 2 h and 8 h after oral administration, about 20 μL of mouse heart blood, portal vein plasma or 20 mg of liver, lung, and ileum tissues were taken in clean centrifuge tubes, 200 μL of MeOH/ACN (50/50, v/v) was added and spun in a vortex mixer for 1 min. The mixtures were centrifuged at 15,000 rpm for 5 min and 20 μL of supernatants were mixed with 20 μL of ACN/water (1/1, v/v) and quantified by LC-MS.
# The values of AUC0-8h were calculated by trapezoidal method based on the concentrations of the compound at 0.5 h, 2 h and 8 h.
# [3] = target: T1, GPR120 (Homo sapiens, UniProt Q5NUL3); conditions: cited from earlier work
# T1 sequence (Q5NUL3 1-361): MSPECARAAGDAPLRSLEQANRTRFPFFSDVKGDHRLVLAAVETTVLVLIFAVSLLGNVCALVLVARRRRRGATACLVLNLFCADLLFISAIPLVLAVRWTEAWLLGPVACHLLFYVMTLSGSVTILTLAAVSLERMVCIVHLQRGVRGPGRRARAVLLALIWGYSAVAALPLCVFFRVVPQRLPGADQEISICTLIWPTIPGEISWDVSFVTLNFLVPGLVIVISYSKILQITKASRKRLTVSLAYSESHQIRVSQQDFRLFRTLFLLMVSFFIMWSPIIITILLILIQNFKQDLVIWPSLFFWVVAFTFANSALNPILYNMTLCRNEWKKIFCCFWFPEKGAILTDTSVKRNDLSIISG
# [4] = target: GPR40 (Homo sapiens, UniProt O14842); conditions: cited from earlier work
# [5] = target: GPR84 (Homo sapiens, UniProt Q9NQS5); conditions: cited from earlier work
# Chain of GPR84 (Q9NQS5 whole entry, species assumed): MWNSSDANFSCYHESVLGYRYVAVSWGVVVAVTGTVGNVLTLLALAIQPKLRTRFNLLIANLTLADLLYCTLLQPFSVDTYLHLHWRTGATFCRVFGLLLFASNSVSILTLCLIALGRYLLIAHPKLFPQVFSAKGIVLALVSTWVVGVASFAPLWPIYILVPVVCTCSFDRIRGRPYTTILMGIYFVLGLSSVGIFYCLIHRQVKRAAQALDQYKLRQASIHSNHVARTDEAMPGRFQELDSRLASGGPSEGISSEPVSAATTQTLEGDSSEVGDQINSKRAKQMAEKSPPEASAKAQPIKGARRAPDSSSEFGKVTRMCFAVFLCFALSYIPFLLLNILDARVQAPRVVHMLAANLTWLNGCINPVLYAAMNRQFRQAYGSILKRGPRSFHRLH
# Chain of GPR40 (O14842 whole entry, species assumed): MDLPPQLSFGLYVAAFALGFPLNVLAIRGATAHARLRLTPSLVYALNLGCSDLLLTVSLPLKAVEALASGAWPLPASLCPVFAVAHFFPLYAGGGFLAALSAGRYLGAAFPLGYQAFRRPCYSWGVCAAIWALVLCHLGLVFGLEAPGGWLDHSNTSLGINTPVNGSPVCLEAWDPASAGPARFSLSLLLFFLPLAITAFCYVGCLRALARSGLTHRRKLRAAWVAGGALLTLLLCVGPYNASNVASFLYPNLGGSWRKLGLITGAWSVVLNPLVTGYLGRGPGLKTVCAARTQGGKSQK
structure (smiles),measurement,setting,value
O=c1nc(OC[C@@H]2COCCO2)cc2n1CCc1cc(C#CC3CC3)ccc1-2 [GLPG1205],efficacy in phase II clinical study versus placebo,[1],lack of significant difference in efficacy from the placebo group
COc1cccc2c1Sc1ccccc1C=C2OP(=O)(O)O[C@@H]1C[C@@H]2CC[C@@]1(C)C2(C)C [LSX472a],AUC(0-t),"[2]; heart plasma, read-out: AUC0-8h, Heart plasma",7750 ng·h/mL
same,AUC(0-t),"[2]; portal vein plasma, read-out: AUC0-8h, Portal vein plasma",8820 ng·h/mL
same,exposure in the intestinal tract (such as Ileum) compared to XYF573c,[2],significantly increased
same,"AUC0-8h, Ileum",[2]; ileum,62902.60 ng·h/g
same,"AUC0-8h, Liver",[2]; liver,4387.83 ng·h/g
same,"AUC0-8h, Lung",[2]; lung,745.34 ng·h/g
same,increase in oral exposure (Plasma AUC0-8h) compared to XYF573c,[2]; plasma,13 fold
"CCCCCc1cc(CCCCC)cc(CC(=O)[O-])c1.[Na+] [PBI-4547, 3,5-di-n-pentyl phenylacetate sodium]",agonistic activity on GPR120,[3],agonistic activity
same,agonistic activity on GPR40,[4],agonistic activity
same,antagonistic activity on GPR84,[5],at the micromolar level
